Reference: patent publication US8008326B2, “4-benzyledene-piperidin derivatives” (Richter Gedeon Vegyeszeti Gyar Rt., priority 2004, dated 2011)
Read-outs that look alike come from different tables or passages of the source. Marks after values point to notes of the source that are not given here.

Experiments:
NMRI mice [1] = assay: Mouse formalin test, second phase, oral administration; format: in vivo; conditions: 15 min before formalin, licking 20 to 25 min after injection
Description: Injection of diluted formalin into the hind paw of rats or mice is known to elicit a biphasic pain-related behaviour measured as time spent by licking/biting of the injured paw. The second phase is generally defined as pain related events detected in the 15-60 min. time interval after formalin injection, with peak activity at around 30 min. It is known that NMDA receptors are involved in the second phase of response to formalin injection and this behavioural response is sensitive to blockade of NMDA receptors [Dickenson, A. and Besson J.-M. (Editors): Chapter 1, pp. 6-7: Animal models of Analgesia; and Chapter 8, pp. 180-183. Mechanism of Central Hypersensitivity: Excitatory Amino Acid Mechanisms and Their Control—In Pharmacology of Pain. Springer-Verlag (Berlin) 1997.] Therefore, we used the second phase of formalin test to characterize the efficacy of compounds in vivo. Inhibition of the second phase of response is considered to indicate an analgesic effect against chemically-induced persistent pain [Hurker, S., et al.: Formalin Test in Mice, a Useful Technique for Evaluating Mild Analgesics, Journal of Neuroscience Methods, 14 (1985) 69-76.]
Male NMRI […] (20-25 g) were used. Prior to the experiment any solid food was withdrawn for approx. 16 hours but the animals had free access to 20% glucose solution. The animals were allowed 1 hour acclimatization period in a glass cylinder (cc. 15 cm in diameter), then moved to an identical cylinder with a mirror placed behind to facilitate observation. The test substances were suspended in 5% tween-80 (10 ml per kg body weight). and administered orally by gavage 15 min before the formalin injection (20 μl of 1% formalin in 0.9& saline injected subcutaneously into the dorsal surface of the right hindpaw). The time spent by licking and biting of the injected paw was measured from 20 to 25 min. after the formalin injection.

NMRI mice [2] = assay: Spontaneous locomotor activity (LMA) in mice; format: in vivo, mouse; conditions: oral
Description: Measurement of Spontaneous Locomotor Activity in Mice
Male NMRI mice weighing 20-22 g were used in the experiments.
Spontaneous locomotor activity was measured in a four-channel activity monitor. The apparatus consisted of acrylic cages (43 cm×43 cm×32 cm) equipped with 2×16 pairs of photocells along all the bottom axis of the cage. An additional array of photocells (16 pairs) was placed along two opposite sides of the cage at the height of 10 cm in order to detect rearing responses.
Experimental groups consisted of 10 animals. Thirty minutes after the oral administration of the test compound or vehicle (tween-80), the animals were individually placed in one of four cages for one hour. Horizontal and vertical movements were determined as the number of beam interruptions for one hour at 15 ruin intervals.
Mean±SE of horizontal activity data of each group was calculated then percentual changes compared to the control (vehicle-treated) group were determined. A compound was considered to cause locomotor stimulation when its effect exceeded 50% increase in beam interruptions. Consequently, doses defined as free from stimulatory action (LMAfree) produced less than 50% increase.

[3] = cited from earlier work
[4] = biological target: T1, NR2B containing NMDA receptors (rat cortical cells) (Rattus norvegicus, UniProt P35439+Q00960); assay: NMDA antagonist potency by intracellular calcium measurement with plate reader fluorimeter in rat cortical cell culture; format: cell-based; conditions: fluorimetric method
T1 construct: The cells at this in vitro age are believed to express predominantly NR2B containing NMDA receptors; endogenous in cells; host or cells: primary neocortical cell culture from 17 day old rat embryos, 3-7 days in vitro
Description: Assessment of NMDA Antagonist Potency In Vitro by Measurement of Intracellular Calcium Concentration with a Plate Reader Fluorimeter in Rat Cortical Cell Culture
The cultures were used for the intracellular calcium measurements after 3-7 days in vitro. […] Before the measurement the cells were loaded with a fluorescent Ca^2+-sensitive dye, Fluo-4/AM (2 μM). To stop loading the cells were washed twice with the solution used for the measurement (140 mM NaCl, 5 mM KCl, 2 mM CaCl2, 5 mM HEPES, 5 mM HEPES-Na, 20 mM glucose, 10 μM glycine, pH=7.4). After washing, the test compounds were added to the cells in the above solution (90 μl well). Intracellular calcium measurements were carried out with a plate reader fluorimeter: elevation of Fluo-4-fluorescence and so, intracellular calcium concentration was induced by application of 40 μM NMDA. Inhibitory potency of the test compounds was assessed by measuring the reduction in the calcium elevation in the presence of different concentrations of the compounds.
(§1) Dose-response curves and IC50-values were calculated using data derived from at least three independent experiments. Inhibitory potency of a compound at a single concentration point was expressed as percent inhibition of the NMDA response. Sigmoidal concentration-inhibition curves were fit to the data and IC50 values were determined as the concentration that produces half of the maximal inhibition caused by the compound.

[5] = biological target: T2, recombinant NMDA receptors NR1/NR2A (HEK293 cells) (Homo sapiens, UniProt Q12879); assay: Inhibition of NMDA evoked cytosolic calcium elevation in HEK293 cells transfected with NR1/NR2A; format: cell-based
T2 construct: expressed in transfected cells
Description: Expression of Recombinant NMDA Receptors
(1997); Neurochemistry International, 43, 19-29. (2003)]. […] Compounds were tested for their inhibitory action on NMDA evoked cytosolic calcium elevations in fluorescent calcium measurements. Studies were performed 48-72 h after addition of the inducing agent. Ketamine (500 μM) was also present during the induction in order to prevent cytotoxicity.
as §1

[6] = other group, Neuropharmacology 38 (1999)
[7] = 40 μM NMDA, read-out: Rat cortical cells (NR2B) appr. IC50
[8] = J. Pharmacol. Exp. Ther. 302 (2002), Behav. Pharmacol. 14 (2003)

T1 sequence (Q00960 27-1482, other chains not shown): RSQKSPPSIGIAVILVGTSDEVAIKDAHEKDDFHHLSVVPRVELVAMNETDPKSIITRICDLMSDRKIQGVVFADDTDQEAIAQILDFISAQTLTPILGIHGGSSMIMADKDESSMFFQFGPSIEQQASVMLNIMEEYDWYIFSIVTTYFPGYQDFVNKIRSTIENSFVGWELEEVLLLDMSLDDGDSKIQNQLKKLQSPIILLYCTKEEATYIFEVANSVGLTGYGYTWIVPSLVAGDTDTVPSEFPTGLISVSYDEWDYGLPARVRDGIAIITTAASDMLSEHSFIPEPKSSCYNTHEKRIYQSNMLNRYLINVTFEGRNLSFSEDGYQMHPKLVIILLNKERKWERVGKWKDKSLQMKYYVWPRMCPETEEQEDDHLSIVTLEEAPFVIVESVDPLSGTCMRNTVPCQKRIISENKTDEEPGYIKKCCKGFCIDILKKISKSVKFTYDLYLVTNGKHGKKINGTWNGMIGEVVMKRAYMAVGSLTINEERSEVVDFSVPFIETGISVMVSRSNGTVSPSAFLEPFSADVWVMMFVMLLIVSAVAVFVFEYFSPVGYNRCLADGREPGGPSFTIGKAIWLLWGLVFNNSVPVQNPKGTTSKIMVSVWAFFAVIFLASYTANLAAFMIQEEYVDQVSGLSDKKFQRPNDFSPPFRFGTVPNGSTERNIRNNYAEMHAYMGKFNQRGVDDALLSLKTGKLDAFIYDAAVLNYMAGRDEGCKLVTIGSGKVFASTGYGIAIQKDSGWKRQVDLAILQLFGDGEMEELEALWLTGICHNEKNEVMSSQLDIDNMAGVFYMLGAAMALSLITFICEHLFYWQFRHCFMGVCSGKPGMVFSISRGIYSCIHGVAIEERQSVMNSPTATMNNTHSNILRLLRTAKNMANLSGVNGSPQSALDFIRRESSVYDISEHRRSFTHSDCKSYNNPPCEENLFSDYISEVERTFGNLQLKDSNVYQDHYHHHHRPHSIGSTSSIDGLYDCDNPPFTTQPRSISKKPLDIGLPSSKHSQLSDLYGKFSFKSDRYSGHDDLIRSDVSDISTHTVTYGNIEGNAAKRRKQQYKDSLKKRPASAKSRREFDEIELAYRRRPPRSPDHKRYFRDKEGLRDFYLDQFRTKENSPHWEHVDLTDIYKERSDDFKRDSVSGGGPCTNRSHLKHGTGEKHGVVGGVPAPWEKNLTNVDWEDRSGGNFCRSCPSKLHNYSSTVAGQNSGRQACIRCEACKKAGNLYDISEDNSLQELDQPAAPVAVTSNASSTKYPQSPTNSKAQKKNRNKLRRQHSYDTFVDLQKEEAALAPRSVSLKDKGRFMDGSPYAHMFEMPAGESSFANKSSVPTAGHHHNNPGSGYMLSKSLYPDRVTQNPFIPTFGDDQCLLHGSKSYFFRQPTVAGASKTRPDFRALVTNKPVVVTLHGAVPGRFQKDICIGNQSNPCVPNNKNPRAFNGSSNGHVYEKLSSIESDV
T2 sequence (Q12879 23-1464, other chains not shown): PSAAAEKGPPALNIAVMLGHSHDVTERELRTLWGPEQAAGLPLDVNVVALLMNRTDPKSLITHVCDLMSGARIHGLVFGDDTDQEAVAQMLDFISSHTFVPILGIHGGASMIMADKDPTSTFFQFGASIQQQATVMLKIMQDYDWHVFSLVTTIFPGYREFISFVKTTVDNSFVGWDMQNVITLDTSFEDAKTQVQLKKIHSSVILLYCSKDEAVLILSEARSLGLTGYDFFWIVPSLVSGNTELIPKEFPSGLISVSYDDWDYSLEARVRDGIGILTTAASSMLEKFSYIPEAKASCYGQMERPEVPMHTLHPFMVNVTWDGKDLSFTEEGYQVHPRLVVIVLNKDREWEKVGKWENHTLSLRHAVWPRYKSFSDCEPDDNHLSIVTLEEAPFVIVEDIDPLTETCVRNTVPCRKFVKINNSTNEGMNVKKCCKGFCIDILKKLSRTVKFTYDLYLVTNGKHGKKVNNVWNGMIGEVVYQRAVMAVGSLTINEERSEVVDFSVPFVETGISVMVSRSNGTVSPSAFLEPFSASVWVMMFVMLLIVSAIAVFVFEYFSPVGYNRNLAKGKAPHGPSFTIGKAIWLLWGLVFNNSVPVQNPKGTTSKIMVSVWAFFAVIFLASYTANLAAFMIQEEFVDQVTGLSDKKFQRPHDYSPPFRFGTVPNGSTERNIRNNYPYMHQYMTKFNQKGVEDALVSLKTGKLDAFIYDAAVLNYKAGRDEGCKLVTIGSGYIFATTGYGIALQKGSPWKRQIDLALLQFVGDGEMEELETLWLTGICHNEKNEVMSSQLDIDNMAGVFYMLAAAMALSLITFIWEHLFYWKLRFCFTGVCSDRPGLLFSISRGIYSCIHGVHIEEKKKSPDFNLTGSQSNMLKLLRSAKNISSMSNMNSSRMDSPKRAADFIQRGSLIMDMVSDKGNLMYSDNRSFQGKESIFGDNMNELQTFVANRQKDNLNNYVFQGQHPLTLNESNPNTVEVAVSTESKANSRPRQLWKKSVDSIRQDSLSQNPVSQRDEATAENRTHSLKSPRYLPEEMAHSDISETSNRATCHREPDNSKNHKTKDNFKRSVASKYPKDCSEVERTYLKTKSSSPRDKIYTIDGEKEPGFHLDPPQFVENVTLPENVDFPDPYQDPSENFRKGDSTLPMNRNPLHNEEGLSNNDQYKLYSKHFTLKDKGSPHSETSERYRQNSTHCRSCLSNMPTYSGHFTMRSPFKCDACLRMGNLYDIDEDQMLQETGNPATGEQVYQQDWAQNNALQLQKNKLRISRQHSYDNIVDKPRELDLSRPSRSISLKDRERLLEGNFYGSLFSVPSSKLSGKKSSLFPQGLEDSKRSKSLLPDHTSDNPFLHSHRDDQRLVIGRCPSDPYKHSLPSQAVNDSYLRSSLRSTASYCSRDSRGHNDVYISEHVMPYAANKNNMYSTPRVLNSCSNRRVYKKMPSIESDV

In the case of O=C(Nc1ccc2[nH]c(=O)oc2c1)C(=O)N1CCC(Cc2ccccc2)CC1 [A, 2-(4-benzyl-piperidin-1-yl)-2-oxo-N-(2-oxo-2,3-dihydro-benzoxazol-6-yl)-acetamide], the ED50 (NMRI mice [1]) is reported as 0.85 mg/kg, the LMA % increase (NMRI mice [2]; dose 1 mg/kg) is reported as 34* % and the LMA % increase (NMRI mice [2]; dose 3 mg/kg) is reported as 62%.

Cc1ccc(CC2CCN(C(=O)C(=O)Nc3ccc4c(c3)CC(=O)N4)CC2)cc1 [B, 2-[4-[4-methyl-benzyl)-piperidin-1-yl]-2-oxo-N-(2-oxo-2,3-dihydro-1H-indol-5-yl)-acetamide] showed an ED50 (NMRI mice [1]) of 0.48 mg/kg, an LMA % increase (NMRI mice [2]; dose 3.75 mg/kg) of 72% and an LMA % increase (NMRI mice [2]; dose 7.5 mg/kg) of 141%.

In the case of O=c1[nH]c2ccc([S+]([O-])CCN3CCC(Cc4ccc(F)cc4)CC3)cc2o1 (stereo not shown) [CI-1041, 6-{2-[4-(4-fluoro-benzyl)-piperidin-1-yl]-ethanesulfinyl}-3H-benzooxazol-2-one], the ED50 (NMRI mice [1]) is reported as 2.4 mg/kg and the LMA % inc. (NMRI mice [2]; dose 10 mg/kg) is reported as 137%.

In the case of C[C@@H]([C@@H](O)c1ccc(O)cc1)N1CCC(O)(c2ccccc2)CC1 [CP-101,606, (1S,2S)-1-(4-hydroxyphenyl)-2-(4-hydroxy-4-phenylpiperidine-1-yl)-1-propanol], the ED50 (NMRI mice [1]) is given as greater than 20 mg/kg, the “effect on locomotor activity” value [3, 6] is given as “no such effect was observed” and the locomotor stimulating effect ([3]; up to 56 mg/kg s.c. and 100 mg/kg i.p., Soc. Neurosc. Abstr. 21 (1995)) is given as “Lack of locomotor stimulating effect”.

In the case of O=C(Nc1ccc2[nH]c(=O)oc2c1)C(=O)N1CCC(=Cc2ccccc2)CC1 [Compound 1, 2-(4-Benzylidene-piperidine-1-yl)-2-oxo-N-(2-oxo-2,3-dihydro-benzooxazol-6-yl)-acetamide], the IC50 [4, 7] is reported as less than 50 nM, the inhibition at 15 µM ([5]; HEK293) is reported as less than 30% and the ED50 (NMRI mice [1]) is reported as 1 mg/kg. For the same molecule, the LMA % increase (NMRI mice [2]; dose 60 mg/kg) was 35* % and the LMA % increase (NMRI mice [2]; dose 120 mg/kg) was 69%.

With Cn1c(=O)[nH]c2ccc(NC(=O)C(=O)N3CCC(=Cc4ccccc4)CC3)cc21 [Compound 3] the IC50 [4, 7] was 50 to 500 nM.

For O=C(Nc1ccc2[nH]c(=O)sc2c1)C(=O)N1CCC(=Cc2ccccc2)CC1 [Compound 5], the IC50 [4, 7] was less than 50 nM and the inhibition at 15 µM ([5]; HEK293) was less than 30%.

Molecule O=C(Nc1ccc2[nH]c(=S)oc2c1)C(=O)N1CCC(=Cc2ccccc2)CC1 [Compound 6] has an IC50 [4, 7] of 50 to 500 nM.

O=C1COc2cc(NC(=O)C(=O)N3CCC(=Cc4ccccc4)CC3)ccc2N1 [Compound 7] gave an IC50 [4, 7] of 500 to 1000 nM.

Molecule CS(=O)(=O)Nc1ccc(NC(=O)C(=O)N2CCC(=Cc3ccccc3)CC2)cc1 [Compound 10] has an IC50 [4, 7] of 50 to 500 nM.

Molecule O=C(Nc1ccc2[nH]c(=O)oc2c1)C(=O)N1CCC(=Cc2ccc(Cl)cc2)CC1 [Compound 11] has an IC50 [4, 7] of less than 50 nM.

In the case of O=C(Nc1ccc2[nH]c(=O)[nH]c2c1)C(=O)N1CCC(=Cc2ccc(Cl)cc2)CC1 [Compound 12], the IC50 [4, 7] is reported as less than 50 nM.

Work on Cn1c(=O)[nH]c2ccc(NC(=O)C(=O)N3CCC(=Cc4ccc(Cl)cc4)CC3)cc21 [Compound 13] yielded an IC50 [4, 7] of 50 to 500 nM.

Molecule O=C1Cc2cc(NC(=O)C(=O)N3CCC(=Cc4ccc(Cl)cc4)CC3)ccc2N1 [Compound 14] has an IC50 [4, 7] of 50 to 500 nM.

In the case of O=C(Nc1ccc2[nH]c(=O)sc2c1)C(=O)N1CCC(=Cc2ccc(Cl)cc2)CC1 [Compound 15], the IC50 [4, 7] is reported as less than 50 nM.

In the case of O=C(Nc1ccc2[nH]c(=S)oc2c1)C(=O)N1CCC(=Cc2ccc(Cl)cc2)CC1 [Compound 16], the IC50 [4, 7] is reported as 50 to 500 nM.

In the case of O=C1COc2cc(NC(=O)C(=O)N3CCC(=Cc4ccc(Cl)cc4)CC3)ccc2N1 [Compound 17], the IC50 [4, 7] is reported as 500 to 1000 nM.

Molecule CS(=O)(=O)Nc1ccc(NC(=O)C(=O)N2CCC(=Cc3ccc(Cl)cc3)CC2)cc1 [Compound 20] has an IC50 [4, 7] of 50 to 500 nM.

Cc1ccc(C=C2CCN(C(=O)C(=O)Nc3ccc4[nH]c(=O)[nH]c4c3)CC2)cc1 [Compound 22] gave an IC50 [4, 7] of less than 50 nM and an inhibition at 15 µM ([5]; HEK293) of less than 30%.

Cc1ccc(C=C2CCN(C(=O)C(=O)Nc3ccc4[nH]c(=O)n(C)c4c3)CC2)cc1 [Compound 23] gave an IC50 [4, 7] of 50 to 500 nM.

Cc1ccc(C=C2CCN(C(=O)C(=O)Nc3ccc4[nH]c(=O)sc4c3)CC2)cc1 [Compound 25] showed an IC50 [4, 7] of less than 50 nM.

Work on Cc1ccc(C=C2CCN(C(=O)C(=O)Nc3ccc4[nH]c(=S)oc4c3)CC2)cc1 [Compound 26] yielded an IC50 [4, 7] of 50 to 500 nM.

Cc1ccc(C=C2CCN(C(=O)C(=O)Nc3ccc4c(c3)OCC(=O)N4)CC2)cc1 [Compound 27] gave an IC50 [4, 7] of 50 to 500 nM.

Cc1ccc(C=C2CCN(C(=O)C(=O)Nc3ccc(NS(C)(=O)=O)cc3)CC2)cc1 [Compound 30] gave an IC50 [4, 7] of 50 to 500 nM.

COc1ccc(C=C2CCN(C(=O)C(=O)Nc3ccc4[nH]c(=O)[nH]c4c3)CC2)cc1 [Compound 32] showed an IC50 [4, 7] of less than 50 nM and an inhibition at 15 µM ([5]; HEK293) of less than 30%.

COc1ccc(C=C2CCN(C(=O)C(=O)Nc3ccc4[nH]c(=O)n(C)c4c3)CC2)cc1 [Compound 33] showed an IC50 [4, 7] of 50 to 500 nM.

COc1ccc(C=C2CCN(C(=O)C(=O)Nc3ccc(NS(C)(=O)=O)cc3)CC2)cc1 [Compound 40] gave an IC50 [4, 7] of less than 50 nM and an inhibition at 15 µM ([5]; HEK293) of less than 30%.

O=C(Nc1ccc2[nH]c(=O)oc2c1)C(=O)N1CCC(=Cc2ccc(F)cc2)CC1 [Compound 41] gave an IC50 [4, 7] of less than 50 nM and an inhibition at 15 µM ([5]; HEK293) of less than 30%.

O=C1Cc2cc(NC(=O)C(=O)N3CCC(=Cc4ccc(F)cc4)CC3)ccc2N1 [Compound 42] showed an IC50 [4, 7] of 500 to 1000 nM.

For O=C(CCN1CCC(Cc2ccc(F)cc2)CC1)c1ccc2[nH]c(=O)oc2c1 [EMD 95885, reference compound], the IC50 ([4]; reference compounds, read-out: rat cortical cells IC50) was 35 nM and the “NR1-3/NR2A % inhibition at 10 μM” value ([5]; 10 μM) was 0.1%.

With C[C@]12N[C@H](Cc3ccccc31)c1ccccc12 [MK-801, (+)-5-Methyl-10,11-dihydro-5H-dibenzo[a,d]cyclohepten-5,10-imine] the ED50 (NMRI mice [1]) was 0.15 mg/kg, the LMA % inc. (NMRI mice [2]; dose 0.1 mg/kg) was 114% and the LMA % inc. (NMRI mice [2]; dose 0.3 mg/kg) was 217%.

For C[C@@H](CN1CCC(Cc2ccccc2)CC1)[C@@H](O)c1ccc(O)cc1 [Ro 25.6981, R—(R*,S*)-1-(4-hydroxyphenyl)-2-methyl-3-[4-(phenylmethyl)piperidine-1-yl]-1-propanol], the inhibition at 10 µM ([5]; HEK293, read-out: NR1-3/NR2A % inhibition at 10 μM) is listed as 1%, the ED50 (NMRI mice [1]) is listed as greater than 20 mg/kg and the “effect on locomotor activity” value [3, 8] is listed as “increase locomotor activity”. The “effect on locomotor activity” value [3, 6] was “no such effect was observed”.

In the case of Cc1ccc(CC2(O)CCN(CCOc3ccc(O)cc3)CC2)cc1 [Ro 63-1908], the “effect on locomotor activity” value [3, 8] is listed as “increase locomotor activity”.
